Data from patent US20250099554A1, “COMPOSITIONS AND METHODS OF FAS INHIBITION” (ONL Therapeutics, Inc., priority 2018, published 2025).
Entries after “also recorded” stand apart in the source; their conditions may differ. Where a SMILES comes first, the peptide text is derived from it.

Assays:
[1] = tested on: retinal ganglion cells (RGCs) and axons; assay: RGC (Brn3a) and axon (PPD) density in microbead-induced mouse model of elevated IOP; assay type: in vivo, C57BL/6J mice
Procedure: (§1) C57BL/6J mice were used in this experiment in which 2 μL of sterile polystyrene microbeads (15 μm; 7.2×10^6 bead/mL) or saline were injected into the anterior chamber on Day 0 followed by 1 μL of 0.5 mg/mL or 2 mg/mL Compound 1 or vehicle by intravitreal (IVT) injection on Day 0 or 7 days after the microbead/saline injections. IOP was followed every 3 days for 4 weeks using a rebound tonometer (TonoLab). At 4 weeks post anterior chamber injection, retinal flatmounts were prepared and stained for Brn3a, an RGC-specific protein, to visualize RGCs. Sixteen non-overlapping images were taken, at 60× with 4-5 images within each quadrant and the images were used to calculate the RGC density. For axon analysis, optic nerves were stained with p-phenylenediamine (PPD) to visualize myelinated axons and 10 non-overlapping photomicrographs were taken at 100× magnification covering the entire area of the optic nerve cross-section, and these images were used to calculate the axon density. Quantitative PCR (qPCR) was also performed on retinal tissue isolated from the mice at 28 days post microbead/saline injections. To assess production of mature IL-1β (p17), protein lysates (20 μg per sample) were prepared from posterior eye cups (neural retina, choroid, and sclera) at 28 days post microbead/saline injections and analyzed by Western blot and densitometry. All data are presented as mean±SEM. One-way ANOVA and the Sidak multiple-comparison test were used for analysis of RGCs and axons. A p value<0.05 was considered significant.

[2] = IOP by rebound tonometer in microbead-induced mouse model of elevated IOP; assay type: in vivo, C57BL/6J mice
Procedure: as §1, with “One-way ANOVA and the Sidak multiple-comparison test were used for analysis of RGCs and axons. A p value<0.05 was considered significant.” left out

[3] = tested on: neural retina gene expression following elevated IOP; assay: qPCR of neural retina after microbead-induced elevation of IOP (Example 1); assay type: in vivo, mice
Description: Quantitative PCR (qPCR) was used on neural retina samples isolated at 28 days post microbead or saline injection from mice treated with Compound 1 (or vehicle) on Day 0.
Data shown are mRNA expression fold change over saline+vehicle control+/−SEM. N=6/group, **P<0.01, ***P<0.001, ****P<0.0001.
A 96-well was expanded to a 384-well qPCR system to allow for an increase in the number of genes to be examined in one run.
For this qPCR analysis, saline+vehicle was used as the control. DDCt=experimental DCt−mean DCt of saline+vehicle, and Expression Fold Change=2^−DDCt.

[4] = tested on: neural retina inflammatory gene expression; assay: qPCR of neural retina at 28 days post microbead injection (Example 2); assay type: in vivo, C57BL/6J mice; conditions: treated on Day 0
Procedure: as §1
Quantitative PCR was performed on neural retina isolated at 28 days post microbead injection from mice treated with ONL1204 (or vehicle) on Day 0. Data shown are mRNA expression fold change over saline controls+/−SEM. N=4/group, *P<0.05, **P<0.01. For analysis of mature IL-1β (p17) production, protein lysates ([…] per sample) were prepared from posterior eye cups (neural retina, choroid, and sclera) and analyzed by Western blot.

[5] = tested on: retinal microglia/macrophages; assay: Iba1 staining of retinal whole mounts, microglia/macrophage activation; assay type: in vivo, C57BL/6J mice; conditions: 28 days post microbead injection, treated at Day 0
Procedure: FIG. 12 depicts representative confocal images of retinal whole mounts at 28 days post microbead injection from mice treated with ONL1204 (or vehicle) at Day 0. Retinal whole mounts were stained with Iba1 (microglia/macrophage). Yellow arrows indicate homeostatic microglia with dendritic morphology; blue arrows indicate activated microglia and/or infiltrating macrophages with amoeboid morphology. Morphometric analysis was performed on Iba1+cells in the ganglion cell layer (60 cells per retina) and the longest process length measured from the edge of the cell body (in […]) was used to quantitate microglia activation.

mature IL-1β (p17) = assay: Western blot and densitometry of mature IL-1β (p17) in posterior eye cups; assay type: in vivo, C57BL/6J mice
Procedure: as §1, with “For axon analysis, optic nerves were stained with p-phenylenediamine (PPD) to visualize myelinated axons and 10 non-overlapping photomicrographs were taken at 100× magnification covering the entire area of the optic nerve cross-section, and these images were used to calculate the axon density.” left out, “All data are presented as mean±SEM. One-way ANOVA and the Sidak multiple-comparison test were used for analysis of RGCs and axons. A p value<0.05 was considered significant.” left out
Quantitative PCR was performed on neural retina isolated at 28 days post microbead injection from mice treated with ONL1204 (or vehicle) on Day 0. […] For analysis of mature IL-1β (p17) production, protein lysates ([…] per sample) were prepared from posterior eye cups (neural retina, choroid, and sclera) and analyzed by Western blot.

[6] = 0.5 mg/ml, 1 μL IVT at Day 0, 4 weeks
[7] = 2.0 mg/mL IVT at Day 7 post-microbead injection, compared to saline plus vehicle controls
[8] = 2 mg/ml, 1 μL IVT at Day 0, 4 weeks
[9] = 28 days post microbead injection, treated Day 0
[10] = 28 days post microbead injection, treated Day 0, vs microbeads and vehicle

SMILES: CC[C@H](C)[C@H](NC(=O)[C@H](Cc1ccc(O)cc1)NC(=O)[C@H](CC(N)=O)NC(=O)[C@@H](NC(=O)[C@H](C)NC(=O)CNC(=O)[C@H](CC(C)C)NC(=O)[C@H](Cc1ccc(O)cc1)NC(=O)[C@@H](NC(=O)[C@H](Cc1cnc[nH]1)NC(=O)[C@@H](N)Cc1cnc[nH]1)[C@@H](C)CC)C(C)C)C(=O)N[C@@H](Cc1ccc(O)cc1)C(N)=O [Compound 1, His-His-Ile-Tyr-Leu-Gly-Ala-Val-Asn-Tyr-Ile-Tyr-amide] (H-HHIYLGAVNYIY-NH2)
- axon density [1, 6]: statistically significant preservation
- retinal ganglion cell density [1, 6]: statistically significant preservation
- axon density [1, 7]: nearly total preservation
- retinal ganglion cell density [1, 7]: nearly total preservation
- axon density [1, 8]: statistically significant preservation
- retinal ganglion cell density [1, 8]: statistically significant preservation
- effect on IOP ([2]; IVT injection on Day 7 post microbeads): did not affect
- effect on IOP ([2]; IVT injection on the same day as the microbeads): did not affect
- ASC gene expression ([3]; 28 day time point): Limited or no change
- Bax gene expression ([3]; 28 day time point): unaffected
- FADD gene expression ([3]; 28 day time point): unaffected
- FasL gene expression ([3]; 28 day time point): unaffected
- FasR gene expression ([3]; 28 day time point): unaffected
- NLRP2 gene expression ([3]; 28 day time point): Limited or no change
- caspase 3 gene expression ([3]; 28 day time point): unaffected
- complement C4 gene expression ([3]; 28 day time point): Limited or no change
- C1q gene expression [3, 9]: significantly reduced
- Caspase 8 gene expression [3, 9]: significantly reduced
- Complement C3 gene expression [3, 9]: significantly reduced
- NLRP3 gene expression [3, 9]: significantly reduced
- TLR4 gene expression [3, 9]: significantly reduced
- cFLIP gene expression (pro-survival) ([3]; 28 days post microbead injection, treated Day 0, decreased in microbead controls): restored to near-baseline
- GFAP gene expression [3, 10]: significantly reduced
- IL-1β gene expression [3, 10]: significantly reduced
- IL-6 gene expression [3, 10]: significantly reduced
- IL-18 gene expression [3, 10]: significantly reduced
- IP-10 gene expression [3, 10]: significantly reduced
- MCP-1 gene expression [3, 10]: significantly reduced
- MIP1α gene expression [3, 10]: significantly reduced
- MIP2 gene expression [3, 10]: significantly reduced
- MIP-1β gene expression [3, 10]: significantly reduced
- TNFα gene expression [3, 10]: significantly reduced
- CCL2/MCP-1 gene expression [4]: substantially inhibited
- CCL3/MIP-1α gene expression [4]: substantially inhibited
- TNF-α gene expression [4]: substantially inhibited
- microglial/macrophage activation [5]: inhibits; also recorded: reduced number of activated microglia/macrophages
- production of mature IL-1β (mature IL-1β (p17); 28 days post microbead injection): reduced
- reduction in production of mature IL-1β by densitometry, compared to vehicle (mature IL-1β (p17); Western blot, following microbead injection): two-fold
